Laboratory results reported in ChEMBL document CHEMBL5335830, “Unusual Sesquiterpenes from Streptomyces olindensis DAUFPE 5622” (J Nat Prod, 2024).
The source made the active and inactive calls.

Columns and labels:
Bacillus subtilis = test: Antimicrobial activity against Bacillus subtilis; format: functional, organism-based
Candida albicans = test: Antifungal activity against Candida albicans; format: functional, organism-based
Escherichia coli = test: Antimicrobial activity against Escherichia coli; format: functional, organism-based
[1] = system: Colon adenocarcinoma cell line; test: Cytotoxicity against human Colon adenocarcinoma cells; format: functional, cell-based

Measured: Activity

CC1=CC(=O)C[C@H]2[C@@H](C)[C@@](C)(CO)CC[C@]12C
inactive: Bacillus subtilis | Candida albicans | Escherichia coli | [1]
